From PubChem BioAssay (NCI)
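Protocol summary: plate cells (96-well), add compound at 5 concentrations, incubate 48 h, interpolate endpoints linearly. GI50 marks 50% less growth. TGI: concentration producing complete growth inhibition.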

Tests used:
Assay in all cases: growth of human tumour cells (NCI), 48 h
[1] = system: NCI-H522 lung
[2] = system: OVCAR-4 ovarian
[3] = system: SNB-75 CNS
[4] = system: SF-295 CNS
[5] = system: A549 NSCLC
[6] = system: UACC-257 melanoma
[7] = system: DU-145 prostate
[8] = system: HT29 colon
[9] = system: SW-620 colon
[10] = system: KM12 colon
[11] = system: NCI/ADR-RES ovarian
[12] = system: MALME-3M melanoma
[13] = system: SK-OV-3 ovarian
[14] = system: SK-MEL-28 melanoma
[15] = system: 786-0 renal
[16] = system: SN12C renal
[17] = system: UACC-62 melanoma
[18] = system: MDA-MB-435
[19] = system: PC-3 prostate
[20] = system: EKVX NSCLC
[21] = system: SNB-19 CNS
[22] = system: HCT-15 colon
[23] = system: ACHN renal
[24] = system: SF-539 CNS
[25] = system: RXF 393 renal
[26] = system: NCI-H460 lung
[27] = system: A498 renal
[28] = system: IGROV1 ovarian
[29] = system: OVCAR-8 ovarian
[30] = system: CCRF-CEM leukemia
[31] = system: OVCAR-5 ovarian
[32] = system: HOP-62 NSCLC
[33] = system: HL-60(TB) leukemia
[34] = system: NCI-H23 lung
[35] = system: SK-MEL-5 melanoma
[36] = system: HCC-2998 colon
[37] = system: CAKI-1 renal
[38] = system: NCI-H226 lung
[39] = system: TK-10 renal
[40] = system: BT-549 breast
[41] = system: HCT-116 colon
[42] = system: MOLT-4 leukemia
[43] = system: M14 melanoma
[44] = system: UO-31 renal
[45] = system: SK-MEL-2 melanoma
[46] = system: SF-268 CNS
[47] = system: HOP-92 NSCLC

Question: With `COc1ccc2nc3ccccc3c(NCc3ccc(Cl)cc3)c2c1` as the compound, how does the GI50 [1] read?
Answer: 2020 nM

Question: And the TGI [1]?
Answer: 5080 nM

Question: What about the GI50 [2] of the same compound?
Answer: 2130 nM

Question: What about the TGI [2] of the same compound?
Answer: 6350 nM

Question: And the GI50 [3]?
Answer: 1270 nM

Question: What about the TGI [3] of the same compound?
Answer: 2620 nM

Question: What about the GI50 [4] of the same compound?
Answer: 1500 nM

Question: What about the TGI [4] of the same compound?
Answer: 2930 nM

Question: And the GI50 [5]?
Answer: 2060 nM

Question: What about the TGI [5] of the same compound?
Answer: 4890 nM

Question: What about the GI50 [6] of the same compound?
Answer: 2030 nM

Question: And the TGI [6]?
Answer: 4570 nM

Question: And the GI50 [7]?
Answer: 2650 nM

Question: And the TGI [7]?
Answer: 7330 nM

Question: And the GI50 [8]?
Answer: 2020 nM

Question: What about the TGI [8] of the same compound?
Answer: 7080 nM

Question: What about the GI50 [9] of the same compound?
Answer: 1650 nM

Question: What about the TGI [9] of the same compound?
Answer: 3470 nM

Question: And the GI50 [10]?
Answer: 3080 nM

Question: And the TGI [10]?
Answer: 11300 nM

Question: And the GI50 [11]?
Answer: 1800 nM

Question: What about the TGI [11] of the same compound?
Answer: 3970 nM

Question: What about the GI50 [12] of the same compound?
Answer: 1810 nM

Question: And the TGI [12]?
Answer: 3390 nM

Question: And the GI50 [13]?
Answer: 3190 nM

Question: What about the TGI [13] of the same compound?
Answer: 9800 nM

Question: What about the GI50 [14] of the same compound?
Answer: 1780 nM

Question: And the TGI [14]?
Answer: 3360 nM

Question: And the GI50 [15]?
Answer: 1730 nM

Question: What about the TGI [15] of the same compound?
Answer: 3200 nM

Question: What about the GI50 [16] of the same compound?
Answer: 1730 nM

Question: What about the TGI [16] of the same compound?
Answer: 3860 nM

Question: And the GI50 [17]?
Answer: 1660 nM

Question: What about the TGI [17] of the same compound?
Answer: 3210 nM

Question: What about the GI50 [18] of the same compound?
Answer: 1500 nM

Question: And the TGI [18]?
Answer: 3060 nM

Question: What about the GI50 [19] of the same compound?
Answer: 1790 nM

Question: What about the TGI [19] of the same compound?
Answer: 4240 nM

Question: What about the GI50 [20] of the same compound?
Answer: 2300 nM

Question: And the TGI [20]?
Answer: 5920 nM

Question: What about the GI50 [21] of the same compound?
Answer: 2260 nM

Question: And the TGI [21]?
Answer: 6350 nM

Question: And the GI50 [22]?
Answer: 1730 nM

Question: What about the TGI [22] of the same compound?
Answer: 3880 nM

Question: And the GI50 [23]?
Answer: 1550 nM

Question: And the TGI [23]?
Answer: 2890 nM

Question: And the GI50 [24]?
Answer: 1710 nM

Question: And the TGI [24]?
Answer: 3240 nM

Question: And the GI50 [25]?
Answer: 1450 nM

Question: What about the TGI [25] of the same compound?
Answer: 3000 nM

Question: What about the GI50 [26] of the same compound?
Answer: 1880 nM

Question: And the TGI [26]?
Answer: 3690 nM

Question: And the GI50 [27]?
Answer: 1440 nM

Question: And the TGI [27]?
Answer: 2770 nM

Question: What about the GI50 [28] of the same compound?
Answer: 2400 nM

Question: And the TGI [28]?
Answer: 6650 nM

Question: What about the GI50 [29] of the same compound?
Answer: 2250 nM

Question: And the TGI [29]?
Answer: 5910 nM

Question: What about the GI50 [30] of the same compound?
Answer: 2660 nM

Question: And the TGI [30]?
Answer: 9480 nM

Question: What about the GI50 [31] of the same compound?
Answer: 1910 nM

Question: And the TGI [31]?
Answer: 4900 nM

Question: And the GI50 [32]?
Answer: 1720 nM

Question: What about the TGI [32] of the same compound?
Answer: 3440 nM

Question: And the GI50 [33]?
Answer: 2290 nM

Question: What about the TGI [33] of the same compound?
Answer: 5240 nM

Question: And the GI50 [34]?
Answer: 1860 nM

Question: And the TGI [34]?
Answer: 4520 nM

Question: And the GI50 [35]?
Answer: 1760 nM

Question: What about the TGI [35] of the same compound?
Answer: 3190 nM

Question: And the GI50 [36]?
Answer: 1760 nM

Question: And the TGI [36]?
Answer: 3240 nM

Question: What about the GI50 [37] of the same compound?
Answer: 1690 nM

Question: And the TGI [37]?
Answer: 3230 nM

Question: What about the GI50 [38] of the same compound?
Answer: 2140 nM

Question: And the TGI [38]?
Answer: 5740 nM

Question: And the GI50 [39]?
Answer: 1960 nM

Question: What about the TGI [39] of the same compound?
Answer: 3840 nM

Question: What about the GI50 [40] of the same compound?
Answer: 5640 nM

Question: What about the TGI [40] of the same compound?
Answer: 20800 nM

Question: What about the GI50 [41] of the same compound?
Answer: 1790 nM

Question: What about the TGI [41] of the same compound?
Answer: 4140 nM

Question: What about the GI50 [42] of the same compound?
Answer: 3190 nM

Question: And the TGI [42]?
Answer: 13300 nM

Question: What about the GI50 [43] of the same compound?
Answer: 1810 nM

Question: What about the TGI [43] of the same compound?
Answer: 3470 nM

Question: And the GI50 [44]?
Answer: 1340 nM

Question: What about the TGI [44] of the same compound?
Answer: 2750 nM

Question: And the GI50 [45]?
Answer: 1930 nM

Question: What about the TGI [45] of the same compound?
Answer: 3700 nM

Question: And the GI50 [46]?
Answer: 1980 nM

Question: And the TGI [46]?
Answer: 4610 nM

Question: What about the GI50 [47] of the same compound?
Answer: 1480 nM

Question: What about the TGI [47] of the same compound?
Answer: 3350 nM
